This is an account of results in patent publication US10369089B2, “Iron oxide nanoparticles and methods of use thereof” (THE TRUSTEES OF THE UNIVERSITY OF PENNSYLVANIA, priority 2015, dated 2019).

Series [1] concerns gingival and palatal tissues. Details: species or system Sprague-Dawley rats. The following applies: rat, in vivo. From the text: Each group was provided with the National Institutes of Health cariogenic diet 2000 and 5% sucrose water ad libitum. The experiment proceeded for 3 weeks. All animals were weighed weekly and their physical appearance was noted daily. All animals gained weight equally among the experimental groups and remained in good health during the experimental period. At the end of the experimental period, the animals were sacrificed and the jaws were surgically removed and dissected. All of the jaws were defleshed and the teeth were prepared for caries scoring according to Larson's modification of Keyes' system disease (see Larson, Animal models in cariology: symposium and workshop proceedings special supplement of microbiology abstracts, 1981; Bowen, Odontology, 2013; […] et al., Infect Immun, 2014; Horev, ACS Nano, 2015). Determination of the caries score of the codified jaws was performed by one calibrated examiner. Furthermore, both the gingival and palatal tissues were collected and processed for hematoxylin and eosin (HE) staining for histopathological analysis.

Series [2] relates to insoluble and soluble EPS. In words: EPS degradation within biofilms. Format: cell-based, Streptococcus mutans UA159. The settings on record: 30 min after H2O2 exposure; vs control. An excerpt: Biofilms were formed on saliva-coated hydroxyapatite (sHA) surfaces (tooth enamel-like material) using Streptococcus mutans, a well-established biofilm-forming, acidogenic and matrix-producing oral pathogen (FIG. 9). The hydroxyapatite discs (surface area, 2.7±0.2 cm^2) were purchased from Clarkson Chromatography and the bacteria strain, Streptococcus mutans UA159, was purchased from ATCC. The biofilm method is based on the saliva-coated hydroxyapatite (sHA) disc model (see Xiao et al., PLoS Pathog. 2012; Klein et al., J Vis Exp. 2011; Falsetta et al., Infect Immun., 2014; Koo et al., J Bacteriol, 2010; Koo et al., J Antimicrob Chemother, 2003). […] The biofilms were collected and analyzed at specific time points (19 h, 29 h and 43 h) by means of confocal fluorescence imaging, microbiological and biochemical analyses (Xiao et al., PLoS Pathog. 2012; Klein et al., J Vis Exp. 2011; Falsetta et al., Infect Immun., 2014; Koo et al., J Bacteriol, 2010; Koo et al., J Antimicrob Chemother, 2003).
To investigate whether CAT-NP-mediated H2O2 catalysis and generation of free-radicals in situ can kill embedded bacteria and degrade the EPS-matrix within biofilms, the following experiments were performed. […] Biofilms treated with CAT-NPs (0.5 mg/ml) were immediately exposed to H2O2 (0.1 to 1%, v/v) and the number of viable cells and EPS content were determined (FIG. 13A and FIG. 14). […]

Series [3] deals with S. mutans biofilms. In words: Biofilm disruption after twice daily topical treatment (confocal microscopy). It is filed as cell-based, Streptococcus mutans UA159. The following applies: CAT-NP 0.5 mg/ml, H2O2 1%, in vitro. From the text: To determine the retention and the spatial distribution of CAT-NPs within an intact biofilm 3D architecture, multiphoton confocal microscopy and computational analysis were used (Xiao et al., PLoS Pathog. 2012; Klein et al., J Vis Exp, 2011; Koo et al., J Bacteriol, 2010). The exopolysaccharides (EPS) (in red) were labeled using […] Alexa Fluor 647-labeled dextran conjugate (10 kDa; 647/668 nm; Molecular Probes Inc., Invitrogen Corp., Carlsbad, Calif., USA) and the bacterial cells (in green) were stained with 2.5 μM SYTO 9 (485/498 nm; Molecular Probes Inc.). The CAT-NPs (in white) were detected via their inherent non-linear optical property using multiphoton confocal microscopy (Xiao et al., PLoS Pathog, 2012; Klein et al., J Vis Exp, 2011; Liao et al., Adv Funct Mater, 2013; Koo et al., J Bacteriol, 2010; Liao et al., Adv Funct Mater, 2013). Imaging was performed using a Leica SP5 multiphoton confocal microscope with a 20× LPlan N (1.05 numerical aperture) water immersion objective lens. […] The confocal images were analyzed using software for simultaneous visualization and quantification of EPS, bacterial cells and CAT-NPs within the intact biofilms. […] COMSTAT and ImageJ were used for quantitative analysis as previously described (Xiao et al., PLoS Pathog. 2012; Klein et al., J Vis Exp. 2011; Koo et al., J Bacteriol, 2010). […]

Series [4] can be described thus: Degradation of purified glucans produced by GtfB and GtfD. Format: biochemical. The settings on record: 0.1 M NaOAc pH 4.5, 37° C., 30 min. On the procedure:
Given that free-radicals produced from H2O2 catalysis can also degrade polysaccharides in vitro (Gao et al., Nanoscale, 2014), the amount of EPS in the CAT-NP-treated biofilms was analyzed following exposure to H2O2. For assessment of EPS degradation, 100 μg of (insoluble or soluble) glucans produced by purified glucosyltransferases (GtfB or GtfD) (Koo et al., Antimicrob Agents Chemother, 2002) were mixed with each of the treatment solutions (in 0.1 M NaOAc, pH 4.5) and incubated at 37° C. for 30 min. The glucans were manufactured as follows. Each of the Gtf enzymes (10 U) were mixed with a sucrose substrate buffer (100 mM sucrose, 20 μM dextran 9,000, 50 mM KCl, 1.0 mM KPO4, 1.0 mM CaCl2 and 0.1 mM MgCl2, pH 6.5) and incubated for 4 h at 37° C. After incubation, the glucans produced were collected by centrifugation, washed and the total amounts were determined by standard phenol-sulfuric acid colorimetric assay (Koo et al., J Antimicrob Chemother, 2003; Koo et al., Antimicrob Agents Chemother, 2002). One hundred micrograms of glucan was mixed with each of the treatment solutions (total reaction volume of 300 μl in 0.1 M NaOAc, pH 4.5) and incubated at 37° C. for 30 min with rocking. After incubation, the amount of reducing sugars was determined by Somogyi-Nelson colorimetric assay.

The subject of series [5] is dental caries. As to the kind of experiment: Rodent model of dental caries. It is filed as in vivo, Sprague-Dawley rats. The following applies: rats, topical twice-daily for 3 weeks; vs. vehicle control. On the procedure: In brief, animal experiments were performed on a well-established rodent model of dental caries (Bowen, Odontology, 2013; […] et al., Infect Immun, 2014; Horev, ACS Nano, 2015; Koo et al., J Dent Res, 2005). Briefly, Sprague-Dawley rats, 15 days old, were purchased with their dams from Harlan Laboratories (Madison, Wis., USA) and screened for infection with S. mutans. Any animals infected with S. mutans prior to inoculation were removed from the study. The animals were then infected orally using an actively growing (mid-logarithmic) culture of S. mutans UA159 and their infection was checked via oral swabbing. Infected animals were randomly placed into four treatment groups (12 animals/group) and their teeth were treated topically using a custom-made applicator twice daily. The treatment groups included: […] Agents were applied topically (orally-delivered; 100 μL per rat) twice-daily for 3 weeks, with brief exposures (30 s) to simulate clinical use. Each group was provided with the National Institutes of Health cariogenic diet 2000 and 5% sucrose water ad libitum. The experiment proceeded for 3 weeks. All animals were weighed weekly and their physical appearance was noted daily. All animals gained weight equally among the experimental groups and remained in good health during the experimental period. […]

Consider iron oxide nanoparticles [IO-NPs], for which, in series [1], the “cytotoxic effects in gingival and palatal tissues (histopathology)” value is given as “no cytotoxic effects”.

Regarding `OO` [H2O2, hydrogen peroxide], the “amounts of insoluble and soluble EPS within biofilms” value in series [2] is “inability to reduce EPS within biofilms”. In series [3], the “biofilm disruption (accumulation of bacterial cells and EPS-matrix)” value is listed as “limited anti-biofilm effects”. Moreover, the “degradation of glucans from GtfB and GtfD (glucose released)” value in series [4] is recorded as “failed to cleave either glucan”. For the same molecule, the “cytotoxic effects in gingival and palatal tissues (histopathology)” value in series [1] was “no cytotoxic effects”. Also, the “initiation and severity of carious lesions (caries scoring)” value in series [5] is on record as “without significant effect”.
